Source: patent publication US10364256B2 (GlaxoSmithKline Intellectual Property Development Limited, priority 2015, dated 2019)
Read-outs that look alike come from different tables or passages of the source.

Assays:
[1] = system: NQO1 specific enzyme activity in BEAS-2B cells (marker for NRF2 activation); assay: BEAS-2B NQO1 MTT Assay; format: cell-based; conditions: Homo sapiens, compound incubated 48 hours, read-out: EC50 (NQO1 specific enzyme activity induction)
Text: BEAS-2B NQO1 MTT Assay NAD(P)H:quinone oxidoreductase 1 (NQO1), also called DT diaphorase, is a homodimeric FAD-containing enzyme that catalyzes obligatory NAD(P)H-dependent two-electron reductions of quinones and protects cells against the toxic and neoplastic effects of free radicals and reactive oxygen species arising from one-electron reductions. The transcription of NQO1 is finely regulated by NRF2, and thus NQO1 activity is a good marker for NRF2 activation. On day one, frozen BEAS-2B cells (ATCC) are thawed in a water bath, counted, and re-suspended at a concentration of 250,000 cells/mL. Fifty microliters of cells are plated in 384 well black clear-bottomed plates. Plates are incubated at 37° C., 5% CO2 overnight. On day two, plates are centrifuged and 50 nL of compound or controls are added to the cells. Plates are then incubated at 37° C., 5% CO2 for 48 hours. On day four, medium is aspirated from the plate and crude cell lysates are made by adding 13 uL of 1× Cell Signaling Technologies lysis buffer with 1 Complete, Mini, EDTA-free Protease Inhibitor Tablet (Roche) for each 10 mL of lysis buffer. After lysis plates are incubated for 20 minutes at room temperature. Two microliters of lysate are removed for use in Cell Titer Glo assay (Promega) and MTT cocktail is prepared (Prochaska et. al. 1998) for measurement of NQO1 activity. Fifty microliters of MTT cocktail is added to each well, plate is centrifuged, and analyzed on an Envision plate reader (Perkin Elmer) using Absorbance 570 nm label for 30 minutes. Product formation is measured kinetically and the pEC50 of NQO1 specific activity induction is calculated by plotting the change in absorbance (Delta OD/min) versus the log of compound concentration followed by 3-parameter fitting. pEC50 is the negative log of the EC50.

[2] = molecular target: T1, Keap1 Kelch domain (321-609) / TAMRA-labeled 16mer NRF2 peptide (ETGE motif) (Homo sapiens, UniProt Q14145); assay: NRF2-Keap1 FP Assay (Keap1 Kelch fluorescence polarization); format: binding; conditions: 20 nM Keap1 (321-609), 8 nM Tamra labeled peptide
T1 construct: the Kelch domain (321-609) of Keap1 is used
Text: One model for the NRF2-Keap1 interaction is through two binding sites in the Neh2 domain on NRF2. The two sites are referred to as the DLG binding motif (latch domain, uM affinity) and the ETGE binding motif (hinge domain, nM affinity). The Keap1 protein consists of an N-terminal region (NTR), a broad complex, tramtrack, and brick a′ brac domain (BTB), an intervening region (IVR), a double glycine repeat domain (DGR or Kelch), and a C-terminal region. The DLG and ETGE motifs of NRF2's Neh2 domain bind to the Kelch domain of Keap1 at different affinities. In the Keap1 Kelch fluorescence polarization (FP) assay, a TAMRA-labeled 16mer peptide (AFFAQLQLDEETGEFL) containing the ETGE motif of NRF2 and the Kelch domain (321-609) of Keap1 is used. The assay determines if a compound interferes with the binding between Keap1 […] and the TAMRA-labeled peptide. Binding of TAMRA-labeled NRF2 peptide to Keap1 (321-609) results in a high FP signal. If a compound interferes with the binding between the peptide and the protein, it will cause the assay signal to decrease. Thus, assay signal is inversely proportional to binding inhibition.
100 nl of 100× compound dose response curves (serial 3-fold dilutions) in DMSO are stamped using an Echo liquid handling system (Labcyte) into 384-well low volume black assay plates (Greiner, #784076), with DMSO in columns 6 and 18. The top concentration of compound is located in columns 1 and 13. Keap1 (321-609) is diluted to 40 nM (2×) in 1× assay buffer (50 mM Tris, pH 8.0, 100 mM NaCl, 5 mM MgCl2, 1 mM DTT, 2 mM CHAPS, and 0.005% BSA) and 5 ul is added using a Multidrop Combi (Thermo Electron Corporation) equipped with a metal tip dispenser to all wells of the compound plate, except column 18. Column 18 receives only 5 ul of assay buffer. Immediately, 5 uL of 16 nM (2×) of Tamra labeled peptide (AFFAQLQLDEETGEFL, 21st Century Biochemicals) is added to all wells of the plate. The plates are spun at 500 rpm for 1 min, incubated for 1 hr at room temperature, and read on an Analyst GT (Molecular Devices) equipped with excitation (530/25 nm) and emission (580/10 nm) filters designed for Tamra probes. A 561 nm dichroic mirror is also used in the Analyst. The final assay concentrations of Keap1 (321-609) and Tamra labeled peptide are 20 nM and 8 nM, respectively. Fluorescence measurements, represented as mP, are used in the transformation of the data. Compound activity is calculated based on percent inhibition, normalized against controls in the assay (Control 1 contains the Tamra peptide and Keap1 (321-609) together (0% response) and control 2 contains the Tamra peptide alone (100% response)). Data analysis is handled using the software package Abase XE (Surrey, United Kingdom. The % inhibition values are calculated by the equation: 100−(100*((compound response−average control 2)/(average control 1−average control2))). For calculation of pIC50s, Abase XE uses a four parameter equation. pIC50 is the negative log of the IC50.

[3] = molecular target: T2, full length Keap1 protein / full length NRF2 protein (Homo sapiens, UniProt Q14145); assay: NRF2-Keap1 TR-FRET Low Protein Assay; format: binding; conditions: 1.25 nM Keap1 FlagHis and 2.5 nM biotin-NRF2 added
T2 construct: full length NRF2 protein and full length Keap1 protein (Keap1 exists a dimer) are used; His
Text: NRF2-Keap1 TR-FRET Low Protein Assay In the NRF2-Keap1 TR-FRET (time-resolved fluorescence resonance energy transfer) low protein assay, full length NRF2 protein and full length Keap1 protein (Keap1 exists a dimer) are used. The assay detects a compound's ability to displace the binding of Keap1 […] with biotinylated Avi-NRF2 protein. Biotin-NRF2 binds to streptavidin-europium (a component of the detection mix) and Keap1 […] is recognized by anti-Flag APC (allophycocyanin) antibody (also a component of the detection mix). If binding occurs between the two proteins, there will be an energy transfer from the Eu+3 (donor) at 615 nm to the APC (acceptor) at 665 nm. A potential NRF2 inhibitor will cause a reduction in the TR-FRET signal by interfering with the binding of Keap1 to NRF2. Ten nanoliters of 100× compound dose response curves (serial 3-fold dilutions) in DMSO are stamped using an Echo liquid handling system (Labcyte) into 384-well, low volume, black assay plates (Greiner, #784076), with DMSO in columns 6 and 18. An additional 90 nl DMSO is added to each well, to bring the total volume to 100 nl per well. The top concentration of compound is located in columns 1 and 13, with the serial dilutions going across the row. All reagents are diluted in assay buffer (50 mM Tris, pH 8.0, 5 mM MgCl2, 100 mM NaCl, 0.005% BSA, 1 mM DTT, and 2 mM CHAPS. The BSA, DTT, and CHAPS are added to the assay buffer on the day of assay. […] Wells in column 18 receive 5 ul of assay buffer instead. Plates are centrifuged at 500 rpm for 1 minute, covered with a plate lid, and incubated at 37° C. for 2.25 hours. Plates are then removed from the incubator and allowed to cool to RT for 15 minutes. Five microliters of 2.5 nM biotin-NRF2 protein is then added to all wells of the plates and the plates are spun at 500 rpm for 1 minute, followed by incubating at 4° C. for 1.25 hours. The plates are then allowed to warm to RT for 15 minutes, followed by the addition of 10 ul of detection mix (1 nM Streptavidin Eu+W1024 and 5 ug/ml mouse anti-DYKDDDDK IgG conjugated to SureLight APC antibody; both from Columbia Biosciences) to all wells. Plates are spun at 500 rpm for 1 minute, incubated for 1 hour at RT, and read on an Envision plate reader using a 320 nm excitation filter and 615 nm and 665 nm emission filters. […] Data analysis is handled using the software package Abase XE (Surrey, United Kingdom). […] For calculation of pIC50s, Abase XE uses a four parameter equation. pIC50 is the negative log of the IC50.

T1 sequence (Q14145 321-609): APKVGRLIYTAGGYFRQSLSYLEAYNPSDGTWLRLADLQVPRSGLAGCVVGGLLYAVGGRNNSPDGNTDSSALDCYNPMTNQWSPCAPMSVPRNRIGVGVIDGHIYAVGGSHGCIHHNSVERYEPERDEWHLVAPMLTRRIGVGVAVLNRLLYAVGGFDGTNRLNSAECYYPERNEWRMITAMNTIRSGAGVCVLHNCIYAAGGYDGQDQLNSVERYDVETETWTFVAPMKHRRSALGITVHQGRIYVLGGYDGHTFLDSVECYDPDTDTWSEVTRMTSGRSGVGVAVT
T2 sequence (Q14145 whole entry): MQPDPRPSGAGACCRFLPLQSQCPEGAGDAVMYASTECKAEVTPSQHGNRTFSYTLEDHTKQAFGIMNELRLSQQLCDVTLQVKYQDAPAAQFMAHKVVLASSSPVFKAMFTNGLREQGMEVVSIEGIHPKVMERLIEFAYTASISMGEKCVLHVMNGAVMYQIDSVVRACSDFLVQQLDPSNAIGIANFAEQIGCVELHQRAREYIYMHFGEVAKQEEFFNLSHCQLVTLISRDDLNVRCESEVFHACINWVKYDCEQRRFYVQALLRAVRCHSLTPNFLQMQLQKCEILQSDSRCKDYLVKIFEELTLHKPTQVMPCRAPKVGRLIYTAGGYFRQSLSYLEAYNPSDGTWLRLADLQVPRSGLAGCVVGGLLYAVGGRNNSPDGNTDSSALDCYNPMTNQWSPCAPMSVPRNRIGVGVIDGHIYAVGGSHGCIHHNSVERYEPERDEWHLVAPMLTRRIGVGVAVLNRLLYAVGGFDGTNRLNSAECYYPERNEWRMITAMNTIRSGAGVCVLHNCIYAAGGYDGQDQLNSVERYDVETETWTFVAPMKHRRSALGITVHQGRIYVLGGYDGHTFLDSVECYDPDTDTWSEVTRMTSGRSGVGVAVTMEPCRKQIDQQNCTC

IC50 [2] | IC50 [3] | Compound | EC50 [1] | EC50 ([1]; BEAS-2B, 48 h)
> 10000 nM | 1000 to 10000 nM | CCOC(=O)c1cnn(-c2cccc(-c3cccc(O[C@@H](C)C4CCCCC4)c3)c2)c1[C@@H]1C[C@H]1c1cn(C)nn1 [Example 105, Ethyl 1-(3′-((S)-1-cyclohexylethoxy)-[1,1′-biphenyl]-3-yl)-5-((1R,2R)-2-(1-methyl-1H-1,2,3-triazol-4-yl)cyclopropyl)-1H-pyrazole-4-carboxylate] | < 1 nM | –
100 to 1000 nM | 100 to 1000 nM | C[C@H](Oc1cccc(-c2cccc(-n3ncc(C(=O)O)c3[C@@H]3C[C@H]3c3cn(Cc4ccccc4)nn3)c2)c1)C1CCCCC1 (racemic) [Example 87, 5-(trans-2-(1-Benzyl-1H-1,2,3-triazol-4-yl)cyclopropyl)-1-(3′-((S)-1-cyclohexylethoxy)-[1,1′-biphenyl]-3-yl)-1H-pyrazole-4-carboxylic Acid] | 10 to 100 nM | –
10 to 100 nM | < 10 nM | CCC[C@@H]1CCCCN1C(=O)c1cccc(-c2cccc(-n3ncc(C(=O)O)c3[C@@H]3C[C@H]3c3cc(C)no3)c2)c1F (racemic) [Example 117, 1-(2′-fluoro-3′-((R)-2-propylpiperidine-1-carbonyl)-[1,1′-biphenyl]-3-yl)-5-(trans-2-(3-methylisoxazol-5-yl)cyclopropyl)-1H-pyrazole-4-carboxylic Acid] | 10 to 100 nM | –
10 to 100 nM | 10 to 100 nM | Cn1cc(C2CC2c2c(C(=O)O)cnn2-c2cccc(-c3cccc(OCCC4CCCCC4)c3)c2)nn1 (stereo not drawn) [Example 170, 1-(3′-(2-Cyclohexylethoxy)-[1,1′-biphenyl]-3-yl)-5-(2-(1-methyl-1H-1,2,3-triazol-4-yl)cyclopropyl)-1H-pyrazole-4-carboxylic acid] | 100 to 1000 nM | –
10 to 100 nM | < 10 nM | CC[C@@H]1CN(C(=O)c2cccc(-c3cccc(-n4ncc(C(=O)O)c4[C@@H]4C[C@H]4c4cn(C)nn4)c3)c2)Cc2ccccc2O1 [Example 257] | 1000 to 10000 nM | –
10 to 100 nM | 10 to 100 nM | C[C@H](Oc1cccc(-c2cccc(-n3ncc(C(=O)O)c3[C@@H]3C[C@H]3c3cn(CC(F)(F)F)nn3)c2)c1)C1CCCCC1 [Example 97, 1-(3′-((S)-1-Cyclohexylethoxy)-[1,1′-biphenyl]-3-yl)-5-((1R,2R)-2-(1-(2,2,2-trifluoroethyl)-1H-1,2,3-triazol-4-yl)cyclopropyl)-1H-pyrazole-4-carboxylic acid] | 1 to 10 nM | –
100 to 1000 nM | 10 to 100 nM | CC(Oc1cccc(-c2cccc(-n3ncc(C(=O)O)c3[C@H]3C[C@@H]3c3cn(C(C)C)nn3)c2)c1)C1CCCCC1 (mixture of isomers) [Example 195, 1-(3′-(1-cyclohexylethoxy)-[1,1′-biphenyl]-3-yl)-5-((1,2-trans)-2-(1-isopropyl-1H-1,2,3-triazol-4-yl)cyclopropyl)-1H-pyrazole-4-carboxylic acid] | 10 to 100 nM | –
1000 to 10000 nM | 1000 to 10000 nM | C[C@H](Oc1cccc(-c2cccc(-n3ncc(C(=O)O)c3[C@@H]3C[C@H]3c3cnn(C)c3)c2)c1)C1CCCCC1 (racemic) [Example 103, 1-(3′-((S)-1-cyclohexylethoxy)-[1,1′-biphenyl]-3-yl)-5-(trans-2-(1-methyl-1H-pyrazol-4-yl)cyclopropyl)-1H-pyrazole-4-carboxylic Acid] | 100 to 1000 nM | –
10 to 100 nM | < 10 nM | C[C@H](Oc1cccc(-c2cccc(-n3ncc(C(=O)O)c3[C@@H]3C[C@H]3c3cn(CCO)nn3)c2)c1)C1CCCCC1 (racemic) [Example 90, 1-(3′-((S)-1-Cyclohexylethoxy)-[1,1′-biphenyl]-3-yl)-5-(trans-2-(1-(2-hydroxyethyl)-1H-1,2,3-triazol-4-yl)cyclopropyl)-1H-pyrazole-4-carboxylic acid] | 10 to 100 nM | –

Compound | IC50 [2] | IC50 [3] | EC50 [1] | EC50 ([1]; BEAS-2B, 48 h)
C[C@H](Oc1cccc(-c2cccc(-n3ncc(C(=O)O)c3[C@@H]3C[C@H]3c3cn(C)nn3)c2)c1)C1CCCCC1 [Example 64, 1-(3′-((S)-1-Cyclohexylethoxy)-[1,1′-biphenyl]-3-yl)-5-((1R,2R)-2-(1-methyl-1H-1,2,3-triazol-4-yl)cyclopropyl)-1H-pyrazole-4-carboxylic Acid] | 10 to 100 nM | < 10 nM | – | 10 to 100 nM
